Results: patent publication US10499642B2, “Isoxazoline-substituted benzamides and analogues as insecticides” (SYNGENTA PARTICIPATIONS AG, priority 2015, dated 2019)

How the values were obtained:
Assay type in all cases: in vivo
Plutella xylostella = Plutella xylostella (diamond back moth) artificial diet test; details: 120 h, read-out: effect in at least one of the two categories (mortality or growth inhibition)
Method: Plutella xylostella (Diamond Back Moth):
(§1) 24-well microtiter plates with artificial diet were treated with aqueous test solutions prepared from 10′000 ppm DMSO stock solutions by pipetting. After drying, the plates were infested with L2 larvae (10 to 15 per well). The samples were assessed for mortality and growth inhibition in comparison to untreated samples 5 days after infestation. The following compounds gave an effect of at least 80% in at least one of the two categories (mortality or growth inhibition) at an application rate of 200 ppm: […]

Diabrotica Balteata = test: Diabrotica balteata (corn root worm) maize sprout test; details: 96 h, read-out: effect in at least one of the two categories (mortality or growth inhibition)
Method: Diabrotica Balteata, (Corn Root Worm)
as §1, with “Maize sprouts, placed on an agar layer in 24-well” for “24-well”, “plates” for “plates with artificial diet”, “spraying.” for “pipetting.”, “(6” for “(10”, “10” for “15”, “4” for “5”

Thrips tabaci = Thrips tabaci (onion thrips) sunflower leaf disc test; details: foliar, 144 h
Method: Thrips tabaci (Onion Thrips):
(§2) Sunflower leaf discs were placed on agar in 24-well microtiter plates and sprayed with aqueous test solutions prepared from 10′000 ppm DMSO stock solutions. After drying the leaf discs were infested with a thrips population of mixed ages. The samples were assessed for mortality 6 days after infestation.

Myzus persicae = Myzus persicae (green peach aphid) sunflower leaf disc test; details: foliar, 144 h
Method: Myzus persicae (Green Peach Aphid):
Sunflower leaf discs were placed on agar in a 24-well microtiter plate and sprayed with test solutions at an application rate of 200 ppm. After drying, the leaf discs were infested with an aphid population of mixed ages. After an incubation period of 6 days after treatment, samples were checked for mortality. The following compounds gave at least 80% mortality of Myzus persicae: […]

Spodoptera littoralis = Spodoptera littoralis (Egyptian cotton leaf worm) cotton leaf disc test; details: foliar, 72 h, read-out: control (at least one of mortality, anti-feedant effect, and growth inhibition)
Method: Spodoptera littoralis (Egyptian Cotton Leaf Worm)
Cotton leaf discs were placed on agar in 24-well microtiter plates and sprayed with aqueous test solutions prepared from 10′000 ppm DMSO stock solutions. After drying the leaf discs were infested with five L1 larvae. The samples were assessed for mortality, anti-feedant effect, and growth inhibition in comparison to untreated samples 3 days after infestation. Control of Spodoptera littoralis by a test sample is when at least one of mortality, anti-feedant effect, and growth inhibition is higher than the untreated sample.

Tetranychus urticae = Tetranychus urticae (two-spotted spider mite) bean leaf disc test; details: foliar, 192 h
Method: Tetranychus urticae (Two-Spotted Spider Mite):
as §2, with “Bean” for “Sunflower”, “discs” for “discs were placed”, “were” for “and”, “mite” for “thrips”, “on mixed population (mobile stages) 8” for “6”

Cc1cc(C2=NO[C@@](c3cc(Cl)c(F)c(Cl)c3)(C(F)(F)F)C2)ccc1C(=O)NC1CC(OC2CC2)=NO1 (stereo partly drawn) [Compound A078]
≥ 80%: percent effect (mortality or growth inhibition) at 200 ppm (Plutella xylostella) | percent effect (mortality or growth inhibition) at 200 ppm (Diabrotica Balteata) | mortality at 200 ppm (Thrips tabaci) | mortality at 200 ppm (Myzus persicae) | percent control (mortality, anti-feedant effect or growth inhibition) at 200 ppm (Spodoptera littoralis) | mortality at 200 ppm (Tetranychus urticae)

Cc1cc(C2=NO[C@@](c3cc(Cl)c(F)c(Cl)c3)(C(F)(F)F)C2)ccc1C(=O)NC1CC(N(C)C)=NO1 (stereo partly drawn) [Compound A105, 4-[(5S)-5-(3,5-dichloro-4-fluoro-phenyl)-5-(trifluoromethyl)-4H-isoxazol-3-yl]-N-[3-(dimethylamino)-4,5-dihydroisoxazol-5-yl]-2-methyl-benzamide]
≥ 80%: percent effect (mortality or growth inhibition) at 200 ppm (Plutella xylostella) | percent effect (mortality or growth inhibition) at 200 ppm (Diabrotica Balteata) | mortality at 200 ppm (Thrips tabaci) | mortality at 200 ppm (Myzus persicae) | percent control (mortality, anti-feedant effect or growth inhibition) at 200 ppm (Spodoptera littoralis) | mortality at 200 ppm (Tetranychus urticae)

Cc1cc(C2=NO[C@@](c3cc(Cl)cc(C(F)(F)F)c3)(C(F)(F)F)C2)ccc1C(=O)N(C=O)C1CC(Br)=NO1 (stereo partly drawn) [Compound A142, N-(3-bromo-4,5-dihydroisoxazol-5-yl)-4-[(5S)-5-[3-chloro-5-(trifluoromethyl)phenyl]-5-(trifluoromethyl)-4H-isoxazol-3-yl]-N-formyl-2-methyl-benzamide]
≥ 80%: percent effect (mortality or growth inhibition) at 200 ppm (Plutella xylostella) | percent effect (mortality or growth inhibition) at 200 ppm (Diabrotica Balteata) | mortality at 200 ppm (Thrips tabaci) | mortality at 200 ppm (Myzus persicae) | percent control (mortality, anti-feedant effect or growth inhibition) at 200 ppm (Spodoptera littoralis) | mortality at 200 ppm (Tetranychus urticae)

Cc1cc(C2=NO[C@@](c3cc(Cl)c(F)c(Cl)c3)(C(F)(F)F)C2)ccc1C(=O)N(C(=O)OC(C)(C)C)C1CC=NO1 (stereo partly drawn) [Compound A086, tert-butyl N-[4-[(5S)-5-(3,5-dichloro-4-fluoro-phenyl)-5-(trifluoromethyl)-4H-isoxazol-3-yl]-2-methyl-benzoyl]-N-(4,5-dihydroisoxazol-5-yl)carbamate]
≥ 80%: percent effect (mortality or growth inhibition) at 200 ppm (Plutella xylostella) | percent effect (mortality or growth inhibition) at 200 ppm (Diabrotica Balteata) | mortality at 200 ppm (Thrips tabaci) | mortality at 200 ppm (Myzus persicae) | percent control (mortality, anti-feedant effect or growth inhibition) at 200 ppm (Spodoptera littoralis) | mortality at 200 ppm (Tetranychus urticae)

O=CN(C(=O)c1ccc(C2=NO[C@@](c3cc(Cl)c(Cl)c(Cl)c3)(C(F)(F)F)C2)cc1Cl)C1CC(Cl)=NO1 (stereo partly drawn) [Compound A017, 2-chloro-N-(3-chloro-4,5-dihydroisoxazol-5-yl)-N-formyl-4-[(5S)-5-(3,4,5-trichlorophenyl)-5-(trifluoromethyl)-4H-isoxazol-3-yl]benzamide]
≥ 80%: percent effect (mortality or growth inhibition) at 200 ppm (Plutella xylostella) | percent effect (mortality or growth inhibition) at 200 ppm (Diabrotica Balteata) | mortality at 200 ppm (Thrips tabaci) | mortality at 200 ppm (Myzus persicae) | percent control (mortality, anti-feedant effect or growth inhibition) at 200 ppm (Spodoptera littoralis) | mortality at 200 ppm (Tetranychus urticae)

CCOC1=NO[C@H](NC(=O)c2ccc(C3=NO[C@@](c4cc(Cl)cc(Cl)c4)(C(F)(F)F)C3)cc2C)C1 (single isomer, unassigned) [Compound A158]
≥ 80%: percent effect (mortality or growth inhibition) at 200 ppm (Plutella xylostella) | percent effect (mortality or growth inhibition) at 200 ppm (Diabrotica Balteata) | mortality at 200 ppm (Thrips tabaci) | mortality at 200 ppm (Myzus persicae) | percent control (mortality, anti-feedant effect or growth inhibition) at 200 ppm (Spodoptera littoralis) | mortality at 200 ppm (Tetranychus urticae)

CC1=NOC(N(C=O)C(=O)c2ccc(C3=NO[C@@](c4cc(Cl)cc(C(F)(F)F)c4)(C(F)(F)F)C3)cc2C)C1 (stereo partly drawn) [Compound A039, 4-[(5S)-5-[3-chloro-5-(trifluoromethyl)phenyl]-5-(trifluoromethyl)-4H-isoxazol-3-yl]-N-formyl-2-methyl-N-(3-methyl-4,5-dihydroisoxazol-5-yl)benzamide]
≥ 80%: percent effect (mortality or growth inhibition) at 200 ppm (Plutella xylostella) | percent effect (mortality or growth inhibition) at 200 ppm (Diabrotica Balteata) | mortality at 200 ppm (Thrips tabaci) | mortality at 200 ppm (Myzus persicae) | percent control (mortality, anti-feedant effect or growth inhibition) at 200 ppm (Spodoptera littoralis) | mortality at 200 ppm (Tetranychus urticae)

CCOC1=NOC(NC(=O)c2ccc(C3=NO[C@@](c4cc(Cl)c(F)c(Cl)c4)(C(F)(F)F)C3)cc2C)C1 (stereo partly drawn) [Compound A046]
≥ 80%: percent effect (mortality or growth inhibition) at 200 ppm (Plutella xylostella) | percent effect (mortality or growth inhibition) at 200 ppm (Diabrotica Balteata) | mortality at 200 ppm (Thrips tabaci) | mortality at 200 ppm (Myzus persicae) | percent control (mortality, anti-feedant effect or growth inhibition) at 200 ppm (Spodoptera littoralis) | mortality at 200 ppm (Tetranychus urticae)

CCSC1=NOC(NC(=O)c2ccc(C3=NO[C@@](c4cc(Cl)c(Cl)c(Cl)c4)(C(F)(F)F)C3)cc2C)C1 (stereo partly drawn) [Compound A052]
≥ 80%: percent effect (mortality or growth inhibition) at 200 ppm (Plutella xylostella) | percent effect (mortality or growth inhibition) at 200 ppm (Diabrotica Balteata) | mortality at 200 ppm (Thrips tabaci) | mortality at 200 ppm (Myzus persicae) | percent control (mortality, anti-feedant effect or growth inhibition) at 200 ppm (Spodoptera littoralis) | mortality at 200 ppm (Tetranychus urticae)

CCOC1=NOC(N(C(=O)OC(C)(C)C)C(=O)c2ccc(C3=NO[C@@](c4cc(Cl)c(F)c(Cl)c4)(C(F)(F)F)C3)cc2C)C1 (stereo partly drawn) [Compound A132, tert-butyl N-[4-[(5S)-5-(3,5-dichloro-4-fluoro-phenyl)-5-(trifluoromethyl)-4H-isoxazol-3-yl]-2-methyl-benzoyl]-N-(3-ethoxy-4,5-dihydroisoxazol-5-yl)carbamate]
≥ 80%: percent effect (mortality or growth inhibition) at 200 ppm (Plutella xylostella) | percent effect (mortality or growth inhibition) at 200 ppm (Diabrotica Balteata) | mortality at 200 ppm (Thrips tabaci) | mortality at 200 ppm (Myzus persicae) | percent control (mortality, anti-feedant effect or growth inhibition) at 200 ppm (Spodoptera littoralis) | mortality at 200 ppm (Tetranychus urticae)

Cc1cc(C2=NO[C@@](c3cc(Cl)cc(Cl)c3)(C(F)(F)F)C2)ccc1C(=O)N[C@H]1CC(C(F)(F)F)=NO1 (single isomer, unassigned) [Compound A155]
≥ 80%: percent effect (mortality or growth inhibition) at 200 ppm (Plutella xylostella) | percent effect (mortality or growth inhibition) at 200 ppm (Diabrotica Balteata) | mortality at 200 ppm (Thrips tabaci) | mortality at 200 ppm (Myzus persicae) | percent control (mortality, anti-feedant effect or growth inhibition) at 200 ppm (Spodoptera littoralis) | mortality at 200 ppm (Tetranychus urticae)

Cc1cc(C2=NO[C@@](c3cc(Cl)c(F)c(Cl)c3)(C(F)(F)F)C2)ccc1C(=O)NC1CC(OCC(F)(F)C(F)F)=NO1 (stereo partly drawn) [Compound A101]
≥ 80%: percent effect (mortality or growth inhibition) at 200 ppm (Plutella xylostella) | percent effect (mortality or growth inhibition) at 200 ppm (Diabrotica Balteata) | mortality at 200 ppm (Thrips tabaci) | mortality at 200 ppm (Myzus persicae) | percent control (mortality, anti-feedant effect or growth inhibition) at 200 ppm (Spodoptera littoralis) | mortality at 200 ppm (Tetranychus urticae)

CC1=NOC(NC(=O)c2ccc(C3=NO[C@@](c4cc(Cl)c(Cl)c(Cl)c4)(C(F)(F)F)C3)cc2Cl)C1 (stereo partly drawn) [Compound A025, 2-chloro-N-(3-methyl-4,5-dihydroisoxazol-5-yl)-4-[(5S)-5-(3,4,5-trichlorophenyl)-5-(trifluoromethyl)-4H-isoxazol-3-yl]benzamide]
≥ 80%: percent effect (mortality or growth inhibition) at 200 ppm (Plutella xylostella) | percent effect (mortality or growth inhibition) at 200 ppm (Diabrotica Balteata) | mortality at 200 ppm (Thrips tabaci) | mortality at 200 ppm (Myzus persicae) | percent control (mortality, anti-feedant effect or growth inhibition) at 200 ppm (Spodoptera littoralis) | mortality at 200 ppm (Tetranychus urticae)

COC1=NO[C@@H](NC(=O)c2ccc(C3=NO[C@@](c4cc(Cl)c(Cl)c(Cl)c4)(C(F)(F)F)C3)cc2C)C1 (single isomer, unassigned) [Compound A149]
≥ 80%: percent effect (mortality or growth inhibition) at 200 ppm (Plutella xylostella) | percent effect (mortality or growth inhibition) at 200 ppm (Diabrotica Balteata) | mortality at 200 ppm (Thrips tabaci) | mortality at 200 ppm (Myzus persicae) | percent control (mortality, anti-feedant effect or growth inhibition) at 200 ppm (Spodoptera littoralis) | mortality at 200 ppm (Tetranychus urticae)

Cc1cc(C2=NO[C@@](c3cc(Cl)c(Cl)c(Cl)c3)(C(F)(F)F)C2)ccc1C(=O)NC1CC(OCC2(C)COC2)=NO1 (stereo partly drawn) [Compound A123, 2-methyl-N-[3-[(3-methyloxetan-3-yl)methoxy]-4,5-dihydroisoxazol-5-yl]-4-[(5S)-5-(3,4,5-trichlorophenyl)-5-(trifluoromethyl)-4H-isoxazol-3-yl]benzamide]
≥ 80%: percent effect (mortality or growth inhibition) at 200 ppm (Plutella xylostella) | percent effect (mortality or growth inhibition) at 200 ppm (Diabrotica Balteata) | mortality at 200 ppm (Thrips tabaci) | mortality at 200 ppm (Myzus persicae) | percent control (mortality, anti-feedant effect or growth inhibition) at 200 ppm (Spodoptera littoralis) | mortality at 200 ppm (Tetranychus urticae)

CC(=O)OCC1=NOC(NC(=O)c2ccc(C3=NO[C@@](c4cc(Cl)c(F)c(Cl)c4)(C(F)(F)F)C3)cc2C)C1 (stereo partly drawn) [Compound A069]
≥ 80%: percent effect (mortality or growth inhibition) at 200 ppm (Plutella xylostella) | percent effect (mortality or growth inhibition) at 200 ppm (Diabrotica Balteata) | mortality at 200 ppm (Thrips tabaci) | mortality at 200 ppm (Myzus persicae) | percent control (mortality, anti-feedant effect or growth inhibition) at 200 ppm (Spodoptera littoralis) | mortality at 200 ppm (Tetranychus urticae)
